Source: patent US20240215584A1, “ARTICLE HAVING ANTIVIRAL PROPERTIES, ARTICLE HAVING ANTIMICROBIAL PROPERTIES, AND ARTICLE HAVING ANTIFUNGAL PROPERTIES” (NATIONAL INSTITUTE OF ADVANCED INDUSTRIAL SCIENCE AND …, priority 2021, published 2024)
≈ marks a conversion by molar mass, not a printed value. Where two headings read alike, the source gives them in different places.

Legend:
[1] = test system: methicillin-resistant Staphylococcus aureus OM584; experiment: Minimum inhibitory concentration on bacteria; settings: 20 h, read-out: minimum inhibitory concentration (MIC)
Description: (§1) First, a method for measuring the minimum inhibitory concentration on the bacteria will be described. First, 100 μL per hole of a 96-hole test plate was prepared using a Mueller Hinton medium (CAMHB) (and blood added as needed) supplemented with 20 mg/L of Ca^2+ and 10 mg/L of Mg^2+ to give a 2-fold dilution series. […] Each bacterium was cultured in CAMHB (blood added as needed) and added to each of the holes of the test plate at approximately 10000 CFU/mL. The cultures were cultivated at 37° C. for 20 hours, and growth of the bacteria was visually confirmed, and the lowest concentration without growth of the bacteria was defined as the minimum inhibitory concentration (MIC: Minimum Inhibitory Concentration).
(§2) As the bacteria, methicillin-sensitive Staphylococcus aureus 209P, methicillin-resistant Staphylococcus aureus N3115, methicillin-resistant Staphylococcus aureus OM584, vancomycin moderate resistant Staphylococcus aureus Mu50, Pseudomonas aeruginosa wild strain PAO1, Pseudomonas aeruginosa resistance gene quadruple disruption strain YM64, Fecaris ATCC29212, Vancomycin-resistant Fecaris ATCC51299, and Vancomycin-resistant Fecaris NCTC12201 were used.
(§3) Minimum inhibitory concentrations (MIC) were measured against drug-sensitive bacteria and drug-resistant bacteria.

[2] = test system: Vancomycin-resistant Fecaris ATCC51299; experiment: Minimum inhibitory concentration on bacteria; settings: 20 h, read-out: minimum inhibitory concentration (MIC)
Description: as §1, §2, §3

Fecaris ATCC29212 = experiment: Minimum inhibitory concentration on bacteria; settings: 20 h, read-out: minimum inhibitory concentration (MIC)
Description: as §1, §2, §3

[3] = test system: Vancomycin-resistant Fecaris NCTC12201; experiment: Minimum inhibitory concentration on bacteria; settings: 20 h, read-out: minimum inhibitory concentration (MIC)
Description: (§4) First, 100 μL per hole of a 96-hole test plate was prepared using a Mueller Hinton medium (CAMHB) (and blood added as needed) supplemented with 20 mg/L of Ca^2+ and 10 mg/L of Mg^2+ to give a 2-fold dilution series. […] Each bacterium was cultured in CAMHB (blood added as needed) and added to each of the holes of the test plate at approximately 10000 CFU/mL. The cultures were cultivated at 37° C. for 20 hours, and growth of the bacteria was visually confirmed, and the lowest concentration without growth of the bacteria was defined as the minimum inhibitory concentration (MIC: Minimum Inhibitory Concentration).
as §2

[4] = test system: methicillin-sensitive Staphylococcus aureus 209P; experiment: Minimum inhibitory concentration on bacteria; settings: 20 h, read-out: minimum inhibitory concentration (MIC)
Description: as §4, §2

[5] = test system: vancomycin moderate resistant Staphylococcus aureus Mu50; experiment: Minimum inhibitory concentration on bacteria; settings: 20 h, read-out: minimum inhibitory concentration (MIC)
Description: as §1, §2, §3

[6] = test system: methicillin-resistant Staphylococcus aureus N3115; experiment: Minimum inhibitory concentration on bacteria; settings: 20 h, read-out: minimum inhibitory concentration (MIC)
Description: as §4, §2

[7] = test system: Pseudomonas aeruginosa wild strain PAO1; experiment: Minimum inhibitory concentration on bacteria; settings: PAO1, 20 h, read-out: minimum inhibitory concentration (MIC)
[8] = test system: sheep defibrillated blood (red blood cells); settings: 30 min, pH 7.4
Description: 25 μL of sheep defibrillated blood, a Tyrode solution (NaCl 137 mM, KCl 2.7 mM, CaCl2) 1.0 mM, HEPES 10 mM (pH7.4)), and chlorhexidine gluconate or chlorhexidine solution were mixed. A mixture of 25 μL of sheep defibrillated blood and 975 μL of a Tyrode solution was used as a control, and a mixture of 25 μL of sheep defibrillated blood and 975 μL of purified water was used as a complete hemolysis. The mixtures were left standing at 37° C. for 30 minutes. Thereafter, the mixed liquid is centrifuged, and the supernatant is collected. Absorbance at 545 nm was measured. A hemolysis rate was calculated according to the following formula.

[9] = Residual amount on SUS substrate after ultrasonic cleaning in water; type: physicochemical; settings: 125 μg/cm^2 applied on SUS substrate
Description: First, chlorhexidine was dissolved in acetone so as to be 1 mg/mL. […] Chlorhexidine gluconate was dissolved in acetone so as to be 1 mg/mL. […] Subsequently, the concentration of chlorhexidine and the concentration of chlorhexidine gluconate eluted in water were measured by UV-Vis (colorimetric method), and an amount of chlorhexidine and an amount of chlorhexidine gluconate remaining on the substrate were back-calculated from the concentration.

[10] = Calcein efflux rate, viral composition artificial membrane (liposomes); settings: for Calcein Efflux Rate (%) Virus Composition Artificial Membrane: 30° C., 30 minutes
Candida ATCC12201 = experiment: Minimum inhibitory concentration on fungi; type: cell-based; settings: Candida ATCC12201, RPMI1640, 37 °C, 48 hours
Description: The bacteria were cultured in the RPMI1640 and added to each of the holes of the test plate at approximately 200 CFU/mL. The cultures were cultivated at 37 °C for 48 hours, and the growth of the bacteria was visually confirmed, and the minimum concentration without the growth of the bacteria was referred as MIC. Candida ATCC12201 was used as the fungi. […] The minimum inhibitory concentration (MIC) was measured against Candida.

[11] = Calcein efflux rate, bacterial composition artificial membrane (liposomes); settings: for Calcein Efflux Rate (%) Bacterial Composition Artificial Membrane: 30° C., 30 minutes
[12] = 2 minutes ultrasonic cleaning in 60 ml of water at 25° C.
[13] = 10 minutes ultrasonic cleaning in 60 ml of water at 25° C.

Compound | MIC [1] | MIC [2] | MIC (Fecaris ATCC29212) | MIC [3] | MIC [4] | MIC [5] | MIC [6] | MIC [7] | residual amount on substrate [9, 12] | residual amount on substrate [9, 13] | MIC (Candida ATCC12201) | further results
CCn1cc(C(=O)O)c(=O)c2cc(F)c(N3CCNCC3)cc21 [Norfloxacin, norfloxacin] | ≥ 64 µg/mL | 8 µg/mL (≈ 25.1 µM) | 16 µg/mL (≈ 50.1 µM) | 16 µg/mL (≈ 50.1 µM) | 2 µg/mL (≈ 6.26 µM) | ≥ 64 µg/mL | 4 µg/mL (≈ 12.5 µM) | 2 µg/mL (≈ 6.26 µM) | – | – | – | –
[H]/N=C(\N/C(=N/[H])NCCCCCCNC(=N)NC(=N)Nc1ccc(Cl)cc1)Nc1ccc(Cl)cc1 [chlorhexidine gluconate] | – | – | – | – | – | – | – | – | 12.7 μg/cm^2 | could not be calculated | – | hemolytic activity ([8]; 0.05 %): 9.3%; hemolytic activity ([8]; 0.1 %): 75.8%
[H]/N=C(\N/C(=N/[H])NCCCCCCNC(=N)NC(=N)Nc1ccc(Cl)cc1)Nc1ccc(Cl)cc1 [chlorhexidine] | 4 µg/mL (≈ 7.91 µM) | 4 µg/mL (≈ 7.91 µM) | 2 µg/mL (≈ 3.96 µM) | 4 µg/mL (≈ 7.91 µM) | 0.5 µg/mL (≈ 0.989 µM) | 2 µg/mL (≈ 3.96 µM) | 1 µg/mL (≈ 1.98 µM) | 16 µg/mL (≈ 31.7 µM) | 45.4 μg/cm^2 | 43.0 μg/cm^2 | 2 µg/mL (≈ 3.96 µM) | hemolytic activity ([8]; 0.028 %): 11.7%; hemolytic activity ([8]; 0.056 %): 30.2%; Calcein Efflux Rate (%) Virus Composition Artificial Membrane ([10]; 1 μM (0.51 μg/mL)): 6.5%; Calcein Efflux Rate (%) Virus Composition Artificial Membrane ([10]; 2 μM (1.01 μg/mL)): 15.9%; Calcein Efflux Rate (%) Virus Composition Artificial Membrane ([10]; 4 μM (2.02 μg/mL)): 39.8%; Calcein Efflux Rate (%) Virus Composition Artificial Membrane ([10]; 8 μM (4.04 μg/mL)): 68.5%; Calcein Efflux Rate (%) Virus Composition Artificial Membrane ([10]; 16 μM (8.09 μg/mL)): 85.7%; Calcein Efflux Rate (%) Virus Composition Artificial Membrane ([10]; 32 μM (16.17 μg/mL)): 91.6%; Calcein Efflux Rate (%) Virus Composition Artificial Membrane ([10]; 64 μM (32.35 μg/mL)): 108.3%; Calcein Efflux Rate (%) Virus Composition Artificial Membrane ([10]; 128 μM (64.70 μg/mL)): 120.9%; concentration at which calcein was still confirmed to elute ([10]; virus composition artificial membrane): 0.51 µg/mL; Calcein Efflux Rate (%) Bacterial Composition Artificial Membrane ([11]; 1 μM (0.51 μg/mL)): −2.7%; Calcein Efflux Rate (%) Bacterial Composition Artificial Membrane ([11]; 2 μM (1.01 μg/mL)): 2.8%; Calcein Efflux Rate (%) Bacterial Composition Artificial Membrane ([11]; 4 μM (2.02 μg/mL)): 11.5%; Calcein Efflux Rate (%) Bacterial Composition Artificial Membrane ([11]; 8 μM (4.04 μg/mL)): 54.0%; Calcein Efflux Rate (%) Bacterial Composition Artificial Membrane ([11]; 16 μM (8.09 μg/mL)): 91.9%; Calcein Efflux Rate (%) Bacterial Composition Artificial Membrane ([11]; 32 μM (16.17 μg/mL)): 95.1%; Calcein Efflux Rate (%) Bacterial Composition Artificial Membrane ([11]; 64 μM (32.35 μg/mL)): 92.9%; Calcein Efflux Rate (%) Bacterial Composition Artificial Membrane ([11]; 128 μM (64.70 μg/mL)): 104.5%; concentration at which calcein was still found to elute ([11]; bacterial composition artificial membrane): 1.01 µg/mL
OC(Cn1cncn1)(Cn1cncn1)c1ccc(F)cc1F [fluconazole] | – | – | – | – | – | – | – | – | – | – | 0.25 µg/mL (≈ 0.816 µM) | –
